Experimental data reported in patent US6610665B1 (Smithkline Beecham Corporation, priority 1998, dated 2003).
Counter-ions that a name gives are not always drawn.

Tests used:
Format in all cases: cell-based
Conditions in all cases: ratio to NECA
adenosine 1 receptor = molecular target: T1, adenosine 1 receptor (Homo sapiens, UniProt P30542); experiment: Agonist activity, CHO cells transfected with human adenosine receptor and CRE-SPAP reporter; forskolin-enhanced cAMP (A1)
T1 construct: expressed in transfected cells; host or cells: CHO cells
T1 sequence (P30542 1-326): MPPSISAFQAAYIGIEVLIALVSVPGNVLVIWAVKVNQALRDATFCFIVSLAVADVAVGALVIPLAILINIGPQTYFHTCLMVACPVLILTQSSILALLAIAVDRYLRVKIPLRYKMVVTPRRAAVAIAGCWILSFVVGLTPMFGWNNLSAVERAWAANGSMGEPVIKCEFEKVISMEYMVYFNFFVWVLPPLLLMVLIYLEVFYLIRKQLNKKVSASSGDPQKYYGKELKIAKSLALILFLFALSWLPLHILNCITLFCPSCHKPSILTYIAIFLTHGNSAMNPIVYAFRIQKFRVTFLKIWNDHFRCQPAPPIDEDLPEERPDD
Procedure: (§1) (1) Agonist activity against adenosine 2a, adenosine 1 and adenosine 3 receptor subtypes.
(§2) Agonist selectivity of compounds against other human adenosine receptors is determined using Chinese hamster ovary (CHO) cells transfected with the gene for the relevant human adenosine receptor following a method based on that of Castanon and Spevak, 1994. The CHO cells are also transfected with cyclic AMP response elements promoting the gene for secreted placental alkaline phosphatase (SPAP) (Wood, 1995). The effect of test compounds may be determined by their effects on basal levels of CAMP (A2a) or on forskolin-enhanced cAMP (A1 and A3) as reflected by changes in levels of SPAP. EC50 values for compounds may then be determined as a ratio to that of the non-selective agonist N-ethyl carboxamide adenosine (NECA).

adenosine 2a receptor = molecular target: T2, adenosine 2a receptor (Homo sapiens, UniProt P29274); experiment: Agonist activity, CHO cells transfected with human adenosine receptor and CRE-SPAP reporter; basal cAMP (A2a)
T2 construct: expressed in transfected cells; host or cells: CHO cells
T2 sequence (P29274 whole entry): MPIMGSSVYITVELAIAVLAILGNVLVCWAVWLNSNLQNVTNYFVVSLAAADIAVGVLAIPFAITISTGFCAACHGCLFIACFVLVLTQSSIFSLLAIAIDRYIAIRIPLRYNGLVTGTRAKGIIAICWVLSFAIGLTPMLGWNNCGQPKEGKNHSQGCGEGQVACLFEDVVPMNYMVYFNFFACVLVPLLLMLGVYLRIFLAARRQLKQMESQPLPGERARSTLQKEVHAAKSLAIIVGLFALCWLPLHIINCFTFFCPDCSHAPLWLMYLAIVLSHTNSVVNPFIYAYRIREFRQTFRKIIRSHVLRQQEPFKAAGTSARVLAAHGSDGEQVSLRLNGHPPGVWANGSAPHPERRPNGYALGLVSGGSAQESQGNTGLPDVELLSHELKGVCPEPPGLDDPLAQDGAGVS
Procedure: as §1, §2

adenosine 3 receptor = molecular target: T3, adenosine 3 receptor (Homo sapiens, UniProt P0DMS8); experiment: Agonist activity, CHO cells transfected with human adenosine receptor and CRE-SPAP reporter; forskolin-enhanced cAMP (A3)
T3 construct: expressed in transfected cells; host or cells: CHO cells
T3 sequence (P0DMS8 1-318): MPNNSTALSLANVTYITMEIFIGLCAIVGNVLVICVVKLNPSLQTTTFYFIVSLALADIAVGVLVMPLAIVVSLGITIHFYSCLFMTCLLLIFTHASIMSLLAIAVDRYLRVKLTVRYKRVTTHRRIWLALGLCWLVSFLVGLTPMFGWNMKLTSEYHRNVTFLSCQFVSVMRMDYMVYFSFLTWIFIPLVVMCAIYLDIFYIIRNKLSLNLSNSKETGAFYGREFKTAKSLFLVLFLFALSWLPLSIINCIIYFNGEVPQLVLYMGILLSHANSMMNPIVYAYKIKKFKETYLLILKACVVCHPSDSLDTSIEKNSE
Procedure: as §1, §2

[1] = * data are minimum values since preparation was found, after testing, to contain an inactive impurity
[2] = ** data on retested purified compound

A1, EC50 as a ratio of that of NECA (adenosine 1 receptor; [1])	A1, EC50 as a ratio of that of NECA (adenosine 1 receptor; [2])	A2a, EC50 as a ratio of that of NECA (adenosine 2a receptor; [1])	A2a, EC50 as a ratio of that of NECA (adenosine 2a receptor; [2])	A3, EC50 as a ratio of that of NECA (adenosine 3 receptor; [1])	A3, EC50 as a ratio of that of NECA (adenosine 3 receptor; [2])	SMILES	A1, EC50 as a ratio of that of NECA (adenosine 1 receptor; CHO cells, SPAP readout)	A2a, EC50 as a ratio of that of NECA (adenosine 2a receptor; CHO cells, SPAP readout)	A3, EC50 as a ratio of that of NECA (adenosine 3 receptor; CHO cells, SPAP readout)
–	–	–	–	–	–	CCc1noc([C@H]2O[C@@H](n3cnc4c(NC(CC)CC)nc(NC5CCCC5)nc43)[C@H](O)[C@@H]2O)n1.O=CO [Example 23, (2R,3R,4S,5S)-2-[2-Cyclopentylamino-6-(1-ethyl-propylamino)-purin-9-yl]-5-(3-ethyl-[1,2,4]oxadiazol-5-yl)-tetrahydro-furan-3,4-diol formate]	17.02	12.72	>163
–	–	–	–	–	–	CCC(CC)Nc1nc(N[C@H]2CCC[C@@H]2O)nc2c1ncn2[C@@H]1O[C@H](c2nc(C)no2)[C@@H](O)[C@H]1O.O=CO [Example 24, (2R,3R,4S,5S)-2-[6-(1-Ethyl-propylamino)-2-(2S-hydroxy-cyclopent-(S)-ylamino)-purin-9-yl]-5-(3-methyl-[1,2,4]oxadiazol-5-yl)-tetrahydro-furan-3,4-diol formate]	>5264	18.13	>284
–	–	–	–	–	–	CCc1noc([C@H]2O[C@@H](n3cnc4c(NCC(c5ccccc5)c5ccccc5)nc(Nc5ccc(F)cc5)nc43)[C@H](O)[C@@H]2O)n1.O=CO [Example 44, (2R,3R,4S,5S)-2-[6-(2,2-Diphenyl-ethylamino)-2-(4-fluoro-phenylamino)-purin-9-yl]-5-(3-ethyl-[1,2,4]oxadiazol-5-yl)-tetrahydro-furan-3,4-diol formate]	>6131	94.39	>165
1692.4	3006	0.81	0.086	>231	>287	CCc1noc(C2OC(n3cnc4c(N)nc(NC(CO)Cc5ccccc5)nc43)C(O)C2O)n1 [Example 9, (2R,3R,4S,5S)-2-[6-Amino-2-(1S-hydroxymethyl-2-phenyl-ethylamino)-purin-9-yl]-5-(3-ethyl-[1,2,4oxadiazol-5-yl)-tetrahydro-furan-3,4-diol formate]	–	–	–
–	–	–	–	–	–	CCc1noc([C@H]2O[C@@H](n3cnc4c(NCC(c5ccccc5)c5ccccc5)nc(NCCN5CCOCC5)nc43)[C@H](O)[C@@H]2O)n1.O=CO [Example 31, (2R,3R,4S,5S)-2-[6-(2,2-Diphenyl-ethylamino)-2-(2-morpholin-4-yl-ethylamino)-purin-9-yl]-5-(3-ethyl-[1,2,4]oxadiazol-5-yl)-tetrahydro-furan-3,4-diol formate]	6452	30.6	>262
>6244	–	3.97	–	>362	–	CCC(CC)Nc1nc(NC(CO)Cc2ccccc2)nc2c1ncn2C1OC(c2nc(C)no2)C(O)C1O [Example 17, (2R,3R,4S,5S)-2-[6-(1-Ethyl-propylamino)-2-(1S-hydroxymethyl-2-phenl-ethylamino)-purin-9-yl]-5-(3-methyl-[1,2,4]oxadiazol-5-yl)-tetrahydro-furan-3,4-diol formate]	–	–	–
–	–	–	–	–	–	CCc1noc([C@H]2O[C@@H](n3cnc4c(NCCc5ccccc5)nc(NCCc5cn(C)cn5)nc43)[C@H](O)[C@@H]2O)n1.O=CO.O=CO [Example 46]	3560.13	0.90	>165
–	–	–	–	–	–	CCC(CC)Nc1nc(NCCN2CCCCC2)nc2c1ncn2C1OC(c2nc(C3CC3)no2)C(O)C1O [Example 35, (2S,3S,4R,5R)-2-(3-Cyclopropyl-[1,2,4]oxadiazol-5-yl)-5-[6-(1-ethyl-propylamino)-2-(2-piperidin-1-yl-ethylamino)-purin-9-yl]-tetrahydro-furan-3,4-diolldiformate]	912.1	7.89	>194
–	–	–	–	–	–	CCc1noc(C2OC(n3cnc4c(NCC(c5ccccc5)c5ccccc5)nc(NC5CCN(Cc6ccccc6)C5)nc43)C(O)C2O)n1 [Example 45, (2R,3R,4S,5S)-2-[2-(1-Benzyl-pyrrolidin-3S-ylamino)-6-(2,2-diphenyl-ethylamino)-purin-9-yl]-5-(3-ethyl-[1,2,4]oxadiazol-5-yl)-tetrahydro-furan-3,4-diol diformate]	>3738.84	29.82	>165
3270.8	–	8.31	–	231.1	–	Cc1noc(C2OC(n3cnc4c(NCC(c5ccccc5)c5ccccc5)nc(NCCc5c[nH]cn5)nc43)C(O)C2O)n1 [Example 34, (2R,3R,4S,5S)-2-{6-(2,2-Diphenyl-ethylamino)-2-[2-(1H-imidazol-4-yl)-ethylamino]-purin-9-yl}-5-(3-methyl-[1,2,4oxadiazol-5-yl)-tetrahydro-furan-3,4-diol formate]	–	–	–
1863.5	–	4.54	–	>302	–	Cc1noc(C2OC(n3cnc4c(N)nc(NC(CO)Cc5ccccc5)nc43)C(O)C2O)n1 [Example 12, (2R,3R,4S,5S)-2-[6-Amino-2-(1S-hydroxymethyl-2-phenyl-ethylamino)-purin-9-yl]-5-(3-methyl-[1,2,4]oxadiazol-5-yl)-tetrahydro-furan-3,4-diol formate]	–	–	–
–	–	–	–	–	–	CCc1noc([C@H]2O[C@@H](n3cnc4c(NCC(c5ccccc5)c5ccccc5)nc(NCCNc5ccccn5)nc43)[C@H](O)[C@@H]2O)n1.O=CO.O=CO [Example 40]	>=3311.7	4.89	>130
–	–	–	–	–	–	CCc1noc([C@H]2O[C@@H](n3cnc4c(NCC(c5ccccc5)c5ccccc5)nc(NCCO)nc43)[C@H](O)[C@@H]2O)n1.O=CO [Example 43, (2R,3R,4S,5S)-2-[6-(2,2-Diphenyl-ethylamino)-2-(2-hydroxy-ethylamino)-purin-9-yl]-5-(3-ethyl-[1,2,4]oxadiazol-5-yl)-tetrahydro-furan-3,4-diol formate]	1367.6	6.85	>130
–	–	–	–	–	–	CCC(CC)Nc1nc(NCCc2ccccn2)nc2c1ncn2[C@@H]1O[C@H](c2nc(C3CC3)no2)[C@@H](O)[C@H]1O.O=CO.O=CO [Example 37]	>10402	49.45	>87
–	–	–	–	–	–	CCc1noc([C@H]2O[C@@H](n3cnc4c(NCC(c5ccccc5)c5ccccc5)nc(NCCN5CCCCC5)nc43)[C@H](O)[C@@H]2O)n1.O=CO [Example 32, (2R,3R,4S,5S)-2-[6-(2,2-Diphenyl-ethylamino)-2-(2-piperidin-1-yl-ethylamino)-purin-9-yl]-5-(3-ethyl-[1,2,4]oxadiazol-5-yl)-tetrahydro-furan-3,4-diol formate]	7521	31.4	>258

SMILES	A1, EC50 as a ratio of that of NECA (adenosine 1 receptor; [1])	A1, EC50 as a ratio of that of NECA (adenosine 1 receptor; [2])	A2a, EC50 as a ratio of that of NECA (adenosine 2a receptor; [1])	A2a, EC50 as a ratio of that of NECA (adenosine 2a receptor; [2])	A3, EC50 as a ratio of that of NECA (adenosine 3 receptor; [1])	A3, EC50 as a ratio of that of NECA (adenosine 3 receptor; [2])	A1, EC50 as a ratio of that of NECA (adenosine 1 receptor; CHO cells, SPAP readout)	A2a, EC50 as a ratio of that of NECA (adenosine 2a receptor; CHO cells, SPAP readout)	A3, EC50 as a ratio of that of NECA (adenosine 3 receptor; CHO cells, SPAP readout)
Cc1noc([C@H]2O[C@@H](n3cnc4c(N)nc(NC5CCCC5)nc43)[C@H](O)[C@@H]2O)n1.O=CO [Example 11, (2R,3R,4S,5S)-2-(6-Amino-2-cyclopentylamino-purin-9-yl)-5-(3-methyl-[1,2,4]oxadiazol-5-yl)-tetrahydro-furan-3,4-diol formate]	145.5	–	6.66	–	>266	–	–	–	–
Cc1noc([C@H]2O[C@@H](n3cnc4c(N)nc(NCCc5cn(C)cn5)nc43)[C@H](O)[C@@H]2O)n1.O=C(O)C(F)(F)F.O=C(O)C(F)(F)F [Example 7]	1013.4	–	11.02	–	>117	–	–	–	–
CCc1noc([C@H]2O[C@@H](n3cnc4c(NC(CC)CC)nc(NCCN5CCCCC5)nc43)[C@H](O)[C@@H]2O)n1.O=CO [Example 20, (2S,3S,4R,5R)-2-(3-Ethyl-[1,2,4]oxadiazol-5-yl)-5-[6-(1-ethyl-propylamino)-2-(2-piperidin-1-yl-ethylamino)-purin-9-yl]-tetrahydro-furan-3,4-diol formate]	>=1853	–	17.08	–	>694	–	–	–	–
